In US20130023504A1, “Modulation of Prostaglandin/Cyclooxygenase Metabolic Pathways” (HUNTER-FLEMING LIMITED, priority 2006, published 2013):
Marks after values point to notes of the source that are not given here.

Experiments:
Type in all cases: cell-based
human PBMC = experiment: PG levels (PGE2, PGD2, 15d-PGJ2) in culture medium of human PBMC cultured with and without TNF-α, EIA (Example 3)
Procedure: (§1) Whole blood was collected from donors in EDTA-supplemented pouches at the Etablissement Français du Sang (Brest, France). The PBMC were isolated then from whole blood under sterile conditions within 36 hours after collection. Gradient density centrifugation was carried out on Ficoll (Eurobio). After washing in RPMI 1640 medium (Eurobio), cells were suspended in RPMI 1640 medium supplemented with 10% heat-inactivated fetal calf serum (Eurobio), 2 mM glutamine (D. Dutscher), 100 U of penicillin/ml (D. Dutscher), and 100 μg of streptomycin/ml (D. Dutscher). Monocytes were selected by plastic adherence for 1 h and approximately 10^7 cells were plated in 6-well tissue culture plates (3 mL medium per well). All incubations were performed in a humidified incubator at 37° C. and 5% CO2. Cells were recovered and dispersed in 2 ml fresh incubation medium supplemented with either 7β-hydroxyEPIA, 7β-hydroxy-DHEA, or 7α-hydroxy-DHEA (in 20 μL ethanol) in the presence or absence of 0.01 μg/mL TNF-α (Sigma-Aldrich). Control incubations contained 20 μl ethanol but no steroid. Supernatants were collected after 4 h and 24 hours incubations for measurement of their PG contents and cells were used for subsequent RNA isolation. A single step extraction method using the Trizol Reagent (Invitrogen, Cergy-Pontoise, France) provided total RNA.
Commercially available EIA kits were used for the determination of PGE2 levels (Oxford Biomedical Research, UK) and 15d-PGJ2 levels (Assay designs, Euromedex, France) in culture media. Measurement of PGD2 levels was obtained using the prostaglandin D2-MOX EIA kit (Cayman Chemical, Euromedex). In this case, and prior to assay, the fresh samples were immediately treated with the MOX-HCl reagent, which converted PGD2 into PGD2-MOX, thus preventing any further chemical degradation.
(§2) All assays were carried out in triplicate and results were plotted as mean±S.E.M. One-way analysis of variance was performed followed by Duncan's multiple range tests in order to compare the differences between groups. Differences were considered statistically significant when p<0.05.

m-PGES1 mRNA = m-PGES1 mRNA in human PBMC with and without TNF-α, quantitative RT-PCR
Procedure: as §1
(§3) cDNAs were synthesized from TURBO DNase I—treated RNA (Ambion, Huntingdon, UK) using the Superscript first strand synthesis system kit (Invitrogen). RT-PCR amplification mixtures (50 μL) contained 2.5× RealMaster Mix/20×SYBR solution (11.25 μL) (Eppendorf, Le Pecq, France) and 200 nM forward and reverse primers. Reactions were run on a RealPlex ep gradient S mastercycler (Eppendorf). The cycling conditions were 10 minutes at 95° C. and 45 cycles at 95° C., 55° C. and 68° C. for 15 seconds, 30 seconds and 30 seconds, respectively. Each assay included a standard curve of four serial dilution points of control cDNA. The HPRT1 housekeeping gene was used for quantification. All oligonucleotide primers (Table 2) were synthesized by Genecust/Distribio (Evry, France). The specificity of the amplified product was monitored by examining the melting curve of the product and confirmed by analysis on agarose gel electrophoresis.
as §2

COX-2 mRNA = COX-2 mRNA in human PBMC with and without TNF-α, quantitative RT-PCR
Procedure: as §1, §3, §2

[1] = 100 nM + TNF-α (10 ng/mL), 24 h

Structure (SMILES): CC12CCC3C(C1CCC2=O)[C@H](O)C=C1C[C@@H](O)CCC13C (stereo partly drawn) [7α-hydroxy-DHEA, 7α-hydroxy-dehydroEPIAndrosterone]
- 15d-PGJ2 (human PBMC; 1 nM + TNF-α (10 ng/mL), 4 h): 0.37 ± 0.020 ng/mL
- PGD2 (human PBMC; 1 nM + TNF-α (10 ng/mL), 4 h): 0.20 ± 0.003 ng/mL
- PGE2 (human PBMC; 1 nM + TNF-α (10 ng/mL), 4 h): 0.43 ± 0.003 ng/mL
- 15d-PGJ2 (human PBMC; 1 nM + TNF-α (10 ng/mL), 24 h): 0.63 ± 0.007^d ng/mL
- PGE2 (human PBMC; 1 nM + TNF-α (10 ng/mL), 24 h): 1.53 ± 0.048^c ng/mL
- 15d-PGJ2 (human PBMC; 1 nM, 4 h, without TNF-α): 0.46 ± 0.004 ng/mL
- PGD2 (human PBMC; 1 nM, 4 h, without TNF-α): 0.17 ± 0.004 ng/mL
- PGE2 (human PBMC; 1 nM, 4 h, without TNF-α): 0.22 ± 0.006 ng/mL
- 15d-PGJ2 (human PBMC; 1 nM, 24 h, without TNF-α): 0.51 ± 0.013^a ng/mL
- PGD2 (human PBMC; 1 nM, 24 h, without TNF-α): 0.13 ± 0.001 ng/mL
- PGE2 (human PBMC; 1 nM, 24 h, without TNF-α): 0.23 ± 0.003 ng/mL
- 15d-PGJ2 (human PBMC; 10 nM + TNF-α (10 ng/mL), 4 h): 0.40 ± 0.004 ng/mL
- PGD2 (human PBMC; 10 nM + TNF-α (10 ng/mL), 4 h): 0.17 ± 0.006 ng/mL
- PGE2 (human PBMC; 10 nM + TNF-α (10 ng/mL), 4 h): 0.45 ± 0.012 ng/mL
- 15d-PGJ2 (human PBMC; 10 nM + TNF-α (10 ng/mL), 24 h): 0.71 ± 0.012^d ng/mL
- PGE2 (human PBMC; 10 nM + TNF-α (10 ng/mL), 24 h): 1.75 ± 0.052^c ng/mL
- 15d-PGJ2 (human PBMC; 10 nM, 4 h, without TNF-α): 0.42 ± 0.010 ng/mL
- PGD2 (human PBMC; 10 nM, 4 h, without TNF-α): 0.18 ± 0.002 ng/mL
- PGE2 (human PBMC; 10 nM, 4 h, without TNF-α): 0.22 ± 0.006 ng/mL
- 15d-PGJ2 (human PBMC; 10 nM, 24 h, without TNF-α): 0.59 ± 0.003^a ng/mL
- PGD2 (human PBMC; 10 nM, 24 h, without TNF-α): 0.17 ± 0.003 ng/mL
- PGE2 (human PBMC; 10 nM, 24 h, without TNF-α): 0.30 ± 0.006 ng/mL
- 15d-PGJ2 (human PBMC; 100 nM + TNF-α (10 ng/mL), 4 h): 0.41 ± 0.021 ng/mL
- PGD2 (human PBMC; 100 nM + TNF-α (10 ng/mL), 4 h): 0.18 ± 0.001 ng/mL
- PGE2 (human PBMC; 100 nM + TNF-α (10 ng/mL), 4 h): 0.39 ± 0.009 ng/mL
- 15d-PGJ2 (human PBMC; [1]): 0.51 ± 0.012^d ng/mL
- PGE2 (human PBMC; [1]): 1.40 ± 0.037^c ng/mL
- 15d-PGJ2 (human PBMC; 100 nM, 4 h, without TNF-α): 0.41 ± 0.004 ng/mL
- PGD2 (human PBMC; 100 nM, 4 h, without TNF-α): 0.17 ± 0.003 ng/mL
- PGE2 (human PBMC; 100 nM, 4 h, without TNF-α): 0.22 ± 0.005 ng/mL
- 15d-PGJ2 (human PBMC; 100 nM, 24 h, without TNF-α): 0.58 ± 0.024^a ng/mL
- PGD2 (human PBMC; 100 nM, 24 h, without TNF-α): 0.13 ± 0.002 ng/mL
- PGE2 (human PBMC; 100 nM, 24 h, without TNF-α): 0.25 ± 0.012 ng/mL
- mPGES1 (mRNA), mRNA production relative to controls (m-PGES1 mRNA; 1 nM + TNF-α (10 ng/mL), 24 h): 21.5 ± 6.66^a
- mPGES1 (mRNA), mRNA production relative to controls (m-PGES1 mRNA; 1 nM, 4 h, without TNF-α): 0.76 ± 0.053
- mPGES1 (mRNA), mRNA production relative to controls (m-PGES1 mRNA; 1 nM, 24 h, without TNF-α): 1.77 ± 0.324^a
- mPGES1 (mRNA), mRNA production relative to controls (m-PGES1 mRNA; 10 nM + TNF-α (10 ng/mL), 24 h): 24.9 ± 10.30^a
- mPGES1 (mRNA), mRNA production relative to controls (m-PGES1 mRNA; 10 nM, 4 h, without TNF-α): 0.94 ± 0.067
- mPGES1 (mRNA), mRNA production relative to controls (m-PGES1 mRNA; 10 nM, 24 h, without TNF-α): 3.61 ± 0.662^a
- mPGES1 (mRNA), mRNA production relative to controls (m-PGES1 mRNA; [1]): 25.4 ± 6.96^a
- mPGES1 (mRNA), mRNA production relative to controls (m-PGES1 mRNA; 100 nM, 4 h, without TNF-α): 0.71 ± 0.058
- mPGES1 (mRNA), mRNA production relative to controls (m-PGES1 mRNA; 100 nM, 24 h, without TNF-α): 2.63 ± 0.475^a
- COX-2 (mRNA), mRNA production relative to controls (COX-2 mRNA; 1 nM + TNF-α (10 ng/mL), 4 h): 4.72 ± 1.229^a
- COX-2 (mRNA), mRNA production relative to controls (COX-2 mRNA; 1 nM, 4 h, without TNF-α): 0.56 ± 0.072^b
- COX-2 (mRNA), mRNA production relative to controls (COX-2 mRNA; 1 nM, 24 h, without TNF-α): 0.82 ± 0.27^b
- COX-2 (mRNA), mRNA production relative to controls (COX-2 mRNA; 10 nM + TNF-α (10 ng/mL), 4 h): 3.70 ± 1.246^a
- COX-2 (mRNA), mRNA production relative to controls (COX-2 mRNA; 10 nM, 4 h, without TNF-α): 0.94 ± 0.048
- COX-2 (mRNA), mRNA production relative to controls (COX-2 mRNA; 10 nM, 24 h, without TNF-α): 1.66 ± 0.408^a
- COX-2 (mRNA), mRNA production relative to controls (COX-2 mRNA; 100 nM, 4 h, without TNF-α): 1.10 ± 0.108
- COX-2 (mRNA), mRNA production relative to controls (COX-2 mRNA; 100 nM, 24 h, without TNF-α): 1.05 ± 0.214
